Experimental data published in patent US20120022142A1, “RNA Interference Mediated Inhibition of Signal Transducer and Activator of Transcription 1 (STAT1) Gene Expression Using Short Interfering Nucleic Acid (siNA)” (Merck Sharp & Dohme Corp., priority 2009, published 2012).
pEC50: −log10 of the molar value. [invAb] = inverted abasic unit; m = 2'-O-methyl; r = 2'-OH (RNA); f = 2'-fluoro

How the values were obtained:
STAT1 protein = test: STAT1 Western Blot in transfected A549 cells; format: cell-based, human; conditions: % protein remaining (STAT1α and STAT1β together), A549, 30 nM; for Protein 24 hr: 24 hr post-transfection; for Protein 48 hr: 48 hr post-transfection; for Protein 72 hr: 72 hr post-transfection
Protocol: A549 cells were plated in 6-well plates at final counts of 70,000 cells/well in 2 ml of complete growth media (Ham's F12, Cellgro Cat# 10-080-CV+10% FBS). Transfection was performed using 2.5 uL of RNAiMax (Invitrogen Cat# 13778-150) per well. Final concentration of siNAs was 30, 3, 0.3, 0.03, 0.003, and 0.0003 nM done in duplicate. The siNAs were incubated for 24-72 hours. The duplicate samples were pooled to prepare protein lysates and RNA using the “PARIS” Protein and RNA Isolation System from Ambion, Cat# 1921. The total protein in the lysates was measured using a Bradford Dye Reagent (Bio-Rad, Cat# 500-0205).SDS-PAGE/Western Blotting was performed on the on the protein samples and RT-PCR on the RNA samples.
The protein source for the Western Blot experiments were from transfection of A549 cells in a 6 well plate, as described above.
Protein samples were diluted 1:1 in 2× Laemmli buffer with 5% β-mercapto-ethanol and incubated at 95° C. for 5 minutes. 10 ug of protein was loaded in each lane of 7.5% Tris-HCl gel. One lane was designated for MagicMark Protein Standard (Invitrogen # LC5602). Another lane was designated for a Precision Plus Protein Standard (Bio-Rad, Cat# 161-0374). The gel was run at 100V for approximately 2 hours. Protein was transferred to a PVDF membrane at 100V for 60 minutes. Once the transfer was finished, the membrane was blocked in 1% Casein in PBS (BioRad Cat#161-0783) for 1 hour on a plate rocker at room temperature followed by the overnight incubation at 4° C. with STAT1 primary antibody (Clontech, Cat# 610185) diluted 1:500 in 1% Casein in PBS. On the next day, the blot was washed 4×5 minutes in PBST (0.1% Tween-20 in PBS) solution and incubated for 30 minutes at room temperature with goat anti-mouse secondary antibody (Pierce Cat #3 31430) diluted 1:20,000 in 1% Casein in PBS. Then, the blot was washed 4×5 minutes with PBST, rinsed with PBS, and incubated for 1 minute with ECL Western Blotting Substrate (Pierce Biotechnology, Cat# 32106). The bands were visualized on the Bio-Rad VersaDoc Imager.
The level of protein was quantified using the Bio-Rad VersaDoc Imager according to the protocols of that piece of equipment. A pixel count was performed in each lane using an area of identical size. Each sample was then compared to the appropriate control treated sample and converted to a percent of protein remaining compared to control.
An assessment of the level of mRNA at each timepoint was also made and protein samples from the treated cells were used in Western blots with an α-STAT1 antibody. (Clontech, Cat# 610185) and anti-Tubulin Ab (Sigma # T6199) in human A549 cells. Cells were transfected 24, 48 or 72 hours before harvesting total protein and the final concentration of siNAs was 30 nM. Lanes were loaded with 10 ug of total protein. Quantification was done of both the STAT1α and the STAT1β proteins together. All the siNAs tested reduced STAT1 protein at each of the tested timepoints, with the highest degree of protein reduction being observed at 72 hours post-transfection.

STAT1 mRNA = test: Stat1 mRNA knockdown and EC50 in human bronchial epithelial cells (NHBE); format: cell-based; conditions: 48 hours post transfection, mean of 3 donors; for pEC50: Stat1 mRNA knockdown; for Maximum mRNA Knockdown: Stat1 mRNA
Protocol: Human Bronchial Epithelial cells (NHBE cells) obtained from Lonza (Cat. No. CC-2540) were grown at 37 degrees in the presence of 5% CO2 and cultured in BEBM basal medium (Lonza, Cat. No. CC-3171) on Biocoat Collagen1 coated flasks (Becton Dickinson).
Cells were plated in collagen 1 coated plates and cultured in appropriate culture media. The cells were cultured for 24 hours after plating at 37 deg in the presence of 5% CO2. siNAs were diluted in OptiMEM 1 to 1 uM and the transfection agent to 25 ug/ml. For formulation of the siNAs equal volumes of the diluted siNA and delivery lipid were combined and incubated for 20 minutes at room temperature. Cells were meanwhile trypsinised and resuspended in antibiotic free BEBM media at 150,000 cells/ml. 20 ul of the formulated siNA and 80 ul of BEBM media was added per well of a 96 well plate (6 replicates/data point/siNA concentration) so as to give a nine point dose range of the siNAs (100 nM, 30 nM, 10 nM, 3 nM, 1 nM, 0.3 nM, 0.1 nM, 0.03 nM, 0.01 nM). The time of incubation with the transfection agent-siNA complexes were 48 hours with one change of media at 24 hours.
Total RNA was isolated from the cells in the 96-well plate format using the Automated SV96 Total RNA Isolation System (Promega) according to the manufacturer's instructions. The Biomek 2000 Laboratory Automation Workstation (Beckman Coulter) was used to apply the transfected cell lysates to a silica membrane. RNase-Free DNase I was then applied directly to the silica membrane to digest contaminating genomic DNA. The bound total RNA was further purified from contaminating salts, proteins and cellular impurities by simple washing steps. Finally, total RNA was eluted from the membrane by the addition of Nuclease-Free Water.
A series of probes and primers were used for the detection of mRNA transcripts of STAT1, OAS1, and GAPDH (as control/normalisation) in the human cell lines. The assays were performed on an ABI 7900HT instrument according to the manufacturer's instructions.
With TaqMan data, critical threshold values (Ct) were converted to copy numbers corresponding to the particular gene analysed in each well of the 384 well plate. Six identical wells were prepared in each plate for a given treatment. […] Determination of the percentage coefficient of variation (CV) (% C.V.=[standard deviation/average]*100) allowed the omitting of wells whose value was an outlier (so that % C.V.<25). Relative abundance (aka relative expression) of a gene was determined by dividing the mean copy number of that gene with its GAPDH counterpart in that particular sample.
EC50 values were calculated from the data using sigma plot. All calculations of the efficacy and potency of the siNAs were done relative to the non-targeting control siNA.

Row | Substance | Protein 24 hr (STAT1 protein) | Protein 48 hr (STAT1 protein) | Protein 72 hr (STAT1 protein) | pEC50 (STAT1 mRNA) | Maximum mRNA Knockdown (STAT1 mRNA)
1 | 25368-DC: STAT1 siNA duplex, human target site 782; modified strands SEQ ID NO: 73 and 74 (chain 1 GUAAAGUCAGAAAUGUGAATT; chain 2 UUCACAUUUCUGACUUUACUU; chain 1: DNA at AGT, 2'-fluoro at CU, [invAb] at 5' end, 3' end, backbone not given here; chain 2: sugars from the 5' end rrrmfmfffffmmffffmfmm, backbone not given here) | 80% | 54% | 20% | 10.22 | 93%
2 | 25351-DC: STAT1 siNA duplex, human target site 2249; modified strands SEQ ID NO: 39 and 40 (chain 1 CCUACACGAAGAAAGAACUTT; chain 2 AGUUCUUUCUUCGUGUAGGUU; chain 1: DNA at AGT, 2'-fluoro at CU, [invAb] at 5' end, 3' end, backbone not given here; chain 2: sugars from the 5' end rrrfffffffffmfmfmmmmm, backbone not given here) | 87% | 48% | 20% | – | –
3 | 25367-DC: STAT1 siNA duplex, human target site 966; modified strands SEQ ID NO: 71 and 72 (chain 1 GCUUGACAAUAAGAGAAAGTT; chain 2 CUUUCUCUUAUUGUCAAGCUU; chain 1: DNA at AGT, 2'-fluoro at CU, [invAb] at 5' end, 3' end, backbone not given here; chain 2: sugars from the 5' end rrrffffffmffmffmmmfmm, backbone not given here) | 83% | 53% | 30% | – | –
4 | 25372-DC: STAT1 siNA duplex, human target site 968; modified strands SEQ ID NO: 81 and 82 (chain 1 UUGACAAUAAGAGAAAGGATT; chain 2 UCCUUUCUCUUAUUGUCAAUU; chain 1: DNA at AGT, 2'-fluoro at CU, [invAb] at 5' end, 3' end, backbone not given here; chain 2: sugars from the 5' end rrrffffffffmffmffmmmm, backbone not given here) | 76% | 54% | 29% | 9.30 | 96%
5 | 25369-DC: STAT1 siNA duplex, human target site 602; modified strands SEQ ID NO: 75 and 76 (chain 1 GGAAAAGCAAGCGUAAUCUTT; chain 2 AGAUUACGCUUGCUUUUCCUU; chain 1: DNA at AGT, 2'-fluoro at CU, [invAb] at 5' end, 3' end, backbone not given here; chain 2: sugars from the 5' end rrrffmfmfffmfffffffmm, backbone not given here) | 85% | 58% | 38% | – | –
